Results published in BindingDB's records for doi:10.1021/jm051273d (University of North Carolina At Chapel Hill, 2006).

What was measured:
Assay in all cases: PDE4 Activity Assay
Details in all cases: pH 7.5; 22 °C
[1] = biological target: cAMP-specific 3',5'-cyclic phosphodiesterase 4C (Homo sapiens, UniProt Q08493)
Protocol: (§1) PDE4 catalytic activity was monitored by measuring the hydrolysis of [3H]-cAMP to [3H]-AMP using PDE-SPA kit (Amersham International). [3H]-AMP was captured by the SPA beads, and quantified on a Wallac-Microbeta scintillation counter. A linear reaction progress curve (30 min) and a linear enzyme concentration response (0 to 500 pM) were observed. The IC50 value was calculated from an 11-point dose-response curve performed in duplicate using a 4-parameter least-squares nonlinear regression fit.

[2] = biological target: cAMP-specific 3',5'-cyclic phosphodiesterase 4B (Homo sapiens, UniProt Q07343)
Chain of cAMP-specific 3',5'-cyclic phosphodiesterase 4B (Q07343 whole entry): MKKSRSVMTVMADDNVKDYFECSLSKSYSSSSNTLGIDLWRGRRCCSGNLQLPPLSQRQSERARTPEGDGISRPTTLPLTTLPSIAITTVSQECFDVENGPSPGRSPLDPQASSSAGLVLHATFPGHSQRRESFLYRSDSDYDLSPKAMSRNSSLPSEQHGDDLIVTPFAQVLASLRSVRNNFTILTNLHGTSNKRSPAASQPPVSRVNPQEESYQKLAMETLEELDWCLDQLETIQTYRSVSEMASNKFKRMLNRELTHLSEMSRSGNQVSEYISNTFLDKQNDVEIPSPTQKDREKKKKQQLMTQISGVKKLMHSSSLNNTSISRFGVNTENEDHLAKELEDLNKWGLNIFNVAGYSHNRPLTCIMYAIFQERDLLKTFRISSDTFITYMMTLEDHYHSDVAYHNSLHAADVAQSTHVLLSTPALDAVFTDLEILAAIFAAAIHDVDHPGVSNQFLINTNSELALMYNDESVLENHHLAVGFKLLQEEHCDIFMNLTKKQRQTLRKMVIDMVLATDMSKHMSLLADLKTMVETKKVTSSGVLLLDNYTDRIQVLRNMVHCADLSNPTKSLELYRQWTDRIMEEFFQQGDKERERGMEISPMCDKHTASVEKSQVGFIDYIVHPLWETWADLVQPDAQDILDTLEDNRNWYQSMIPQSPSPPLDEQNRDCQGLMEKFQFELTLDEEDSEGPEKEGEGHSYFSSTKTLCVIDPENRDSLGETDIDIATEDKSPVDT
Protocol: as §1

[3] = biological target: cAMP-specific 3',5'-cyclic phosphodiesterase 4D (Homo sapiens, UniProt Q08499)
Chain of cAMP-specific 3',5'-cyclic phosphodiesterase 4D (Q08499 whole entry): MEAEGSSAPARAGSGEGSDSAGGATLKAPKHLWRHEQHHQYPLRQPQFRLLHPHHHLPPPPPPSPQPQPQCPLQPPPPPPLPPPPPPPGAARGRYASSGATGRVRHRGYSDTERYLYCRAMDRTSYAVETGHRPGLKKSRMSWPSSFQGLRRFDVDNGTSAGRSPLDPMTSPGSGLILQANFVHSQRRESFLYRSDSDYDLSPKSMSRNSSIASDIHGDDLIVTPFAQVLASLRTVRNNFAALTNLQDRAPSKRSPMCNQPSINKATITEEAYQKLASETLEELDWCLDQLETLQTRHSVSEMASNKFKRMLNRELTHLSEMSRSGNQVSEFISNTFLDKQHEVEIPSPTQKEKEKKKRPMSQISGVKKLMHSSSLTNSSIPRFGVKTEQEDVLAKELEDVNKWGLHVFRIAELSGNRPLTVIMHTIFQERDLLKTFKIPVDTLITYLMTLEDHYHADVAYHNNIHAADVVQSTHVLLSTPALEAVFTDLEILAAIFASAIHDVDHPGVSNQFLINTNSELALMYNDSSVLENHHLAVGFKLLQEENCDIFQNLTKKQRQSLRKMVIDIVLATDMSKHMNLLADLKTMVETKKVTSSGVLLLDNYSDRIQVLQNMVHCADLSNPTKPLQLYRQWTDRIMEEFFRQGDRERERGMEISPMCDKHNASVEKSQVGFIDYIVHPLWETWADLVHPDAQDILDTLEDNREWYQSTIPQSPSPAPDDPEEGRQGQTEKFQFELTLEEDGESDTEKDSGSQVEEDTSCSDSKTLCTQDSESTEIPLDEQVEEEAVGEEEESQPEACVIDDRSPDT
Protocol: as §1

[4] = biological target: cAMP-specific 3',5'-cyclic phosphodiesterase 4A (Homo sapiens, UniProt P27815)
Chain of cAMP-specific 3',5'-cyclic phosphodiesterase 4A (P27815 whole entry): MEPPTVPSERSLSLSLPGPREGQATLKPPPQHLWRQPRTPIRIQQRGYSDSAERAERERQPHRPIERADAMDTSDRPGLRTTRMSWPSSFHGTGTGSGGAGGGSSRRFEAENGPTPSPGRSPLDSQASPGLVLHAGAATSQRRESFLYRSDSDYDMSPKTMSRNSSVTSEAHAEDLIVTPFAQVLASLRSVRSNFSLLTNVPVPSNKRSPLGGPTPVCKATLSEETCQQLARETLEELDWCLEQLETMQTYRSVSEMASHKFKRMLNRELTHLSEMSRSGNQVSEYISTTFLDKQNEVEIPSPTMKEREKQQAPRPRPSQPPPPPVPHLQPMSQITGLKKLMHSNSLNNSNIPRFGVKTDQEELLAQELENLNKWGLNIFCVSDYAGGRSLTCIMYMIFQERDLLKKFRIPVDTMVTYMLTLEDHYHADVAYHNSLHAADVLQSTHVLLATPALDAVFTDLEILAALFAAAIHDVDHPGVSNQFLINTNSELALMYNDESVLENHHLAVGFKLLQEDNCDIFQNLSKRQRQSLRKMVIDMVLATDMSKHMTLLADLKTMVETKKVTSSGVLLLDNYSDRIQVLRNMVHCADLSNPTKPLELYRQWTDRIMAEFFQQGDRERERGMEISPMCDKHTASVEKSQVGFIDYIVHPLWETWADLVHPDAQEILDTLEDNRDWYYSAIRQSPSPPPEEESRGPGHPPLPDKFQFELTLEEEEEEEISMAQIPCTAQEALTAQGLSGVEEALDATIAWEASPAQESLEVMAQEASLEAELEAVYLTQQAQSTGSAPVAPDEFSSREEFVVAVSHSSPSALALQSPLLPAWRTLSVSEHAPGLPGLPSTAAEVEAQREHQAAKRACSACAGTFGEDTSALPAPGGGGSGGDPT
Protocol: as §1

Chain of cAMP-specific 3',5'-cyclic phosphodiesterase 4C (Q08493 whole entry): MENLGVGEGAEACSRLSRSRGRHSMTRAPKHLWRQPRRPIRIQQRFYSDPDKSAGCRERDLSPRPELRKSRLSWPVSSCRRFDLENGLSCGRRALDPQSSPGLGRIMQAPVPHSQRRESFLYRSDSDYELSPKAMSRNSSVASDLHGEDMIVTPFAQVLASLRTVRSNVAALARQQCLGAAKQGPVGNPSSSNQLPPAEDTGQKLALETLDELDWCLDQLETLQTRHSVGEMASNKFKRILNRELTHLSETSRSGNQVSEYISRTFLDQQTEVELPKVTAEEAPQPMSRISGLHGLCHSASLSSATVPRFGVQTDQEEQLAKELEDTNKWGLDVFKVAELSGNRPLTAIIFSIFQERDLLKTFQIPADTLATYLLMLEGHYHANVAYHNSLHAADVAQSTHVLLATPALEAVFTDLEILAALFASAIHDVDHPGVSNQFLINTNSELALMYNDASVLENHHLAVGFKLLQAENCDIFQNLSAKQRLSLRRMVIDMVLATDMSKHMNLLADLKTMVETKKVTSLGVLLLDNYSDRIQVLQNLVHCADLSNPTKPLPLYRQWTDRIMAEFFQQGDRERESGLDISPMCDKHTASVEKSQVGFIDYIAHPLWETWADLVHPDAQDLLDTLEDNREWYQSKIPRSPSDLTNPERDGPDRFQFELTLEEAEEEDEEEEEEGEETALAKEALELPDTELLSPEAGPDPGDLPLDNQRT

| IC50 [1] [nM] | IC50 [2] [nM] | IC50 [3] [nM] | IC50 [4] [nM] | SMILES |
| --- | --- | --- | --- | --- |
| 1 | 0.4 | 0.4 | 0.4 | [O-][n+]1cccc(C[C@@H](c2ccc(OC(F)F)c(OC3CC3)c2)c2ncc(C(O)(C(F)(F)F)C(F)(F)F)s2)c1 [3-[(2S)-2-[3-cyclopropoxy-4-(difluoromethoxy)phenyl]-2-[5-(1,1,1,3,3,3-hexafluoro-2-hydroxypropan-2-yl)-1,3-thiazol-2-yl]ethyl]-1-oxidopyridin-1-ium] |
| 135 | 40 | – | 56 | [O-][n+]1cccc(C[C@H](c2ccc(OC(F)F)c(OC3CC3)c2)c2ncc(C(O)(C(F)(F)F)C(F)(F)F)s2)c1 [(R)-(-)-3-{2-[(3-cyclopropyloxy-4-difluromethoxy)phenyl]-2-[5-(2-(1-hydroxy-1-trifluoromethyl-2,2,2-trifluoro)ethyl)thiazolyl]ethyl}pyridine N-Oxide] |
